For test [1], the system named is rat gastric secretion. The test can be described thus: Effects of Prostaglandin Analogues on Gastric Secretion in the Rat (Test B). The test is classed as in vivo. As to conditions: pylorus-ligated rats, subcutaneous 1.5 mg/kg twice (total 3.0 mg/kg), 4 hours. Here is the method:
B. Evaluation of the Effects of Prostaglandin Analogues on Gastric Secretion in the Rat
A procedure based on that described by Lipmann (J. Pharm. Pharmacol., 21: 335 [1968]) was used to assess the influence of test compounds on gastric secretion. Rats of one sex weighing 150 to 200 g were randomly divided into groups of six animals each and fasted for 48 hours previously to the experiments, water being available ad libitum. The animals were anesthetized with ether, the abdomen was opened through a midline incision and the pylorus was ligated. Test compounds were diluted from stock solution so as to administer a dose of 1.5 mg/kg in a volume equivalent to 1 ml/kg. Subcutaneous injections were applied immediately after surgery and again 2 hours later, so that a total dose of 3.0 mg/kg was administered. Dilutions were made with phosphate buffer (pH 7.38), as recommended by Lee et al. (Prostaglandins 3: 29 [1973]), in order to insure adequate stability of drugs at the subcutaneous depot. […]
Four hours after pyloric ligation the animals were killed with ether, the cardias ligated and stomachs removed. The volume of gastric secretion was measured and the contents centrifuged at 5000 rpm for 10 minutes. […]
Volume and total acid values of the treated group were compared with those of the controls by the "Squared" test. Antisecretory activity was scored according to the following scale: […]

Test [2] relates to platelet aggregation. Particulars: cited from earlier work.
For test [3], the system named is blood vessels. As to conditions: cited from earlier work.

As to “Ethyl 5, 9β-Epoxy-11α,15-dihydroxy-16,20-methanoprost-13E-en-1-oate [TR-4973]”, the “Activity Value, Test B - inhibition of rat gastric secretion (score of % decrease in acidity)” value in test [1] was 0 (<26).

“9-Deoxy-9a-Homo-6, 9α-epoxy-15S-hydroxyprost-13E-en-1-oic acid [TR-4921]”: the “Activity Value, Test B - inhibition of rat gastric secretion (score of % decrease in acidity)” value in test [1] is reported as 2 (26-50, significant).

As for `CCCCC[C@H](O)/C=C/[C@@H]1[C@H]2C/C(=C/CCCC(=O)O)O[C@H]2C[C@H]1O` [PGI2, (5Z)-9-deoxy-6, 9α-epoxy-Δ^5-prostaglandin F1α], in test [2], the “inhibition of platelet aggregation” value is recorded as “the most potent inhibitor of platelet clumping of all the prostaglandins discovered to date”. Also, in test [2] (in vitro, clumps already induced to form), the “destruction of platelet clumps” value is reported as “destroys platelet clumps after they have been induced to form”. Moreover, in test [3], the “dilation of blood vessels” value is given as “dilates blood vessels dramatically”.

The values above are taken from US4206127A, “5,6-Dihydro analogues of prostaglandin I2” (Miles Laboratories, Inc., priority 1978, dated 1980).
